Data reported in patent US20250289813A1, “CDK INHIBITORS, PHARMACEUTICAL COMPOSITIONS, AND THERAPEUTIC APPLICATIONS” (ONQUALITY PHARMACEUTICALS CHINA LTD., priority 2022, published 2025).

Columns and labels:
CDK4/cyclin D1 = CDK4/cyclin D1 (Homo sapiens (Human), UniProt P11802); experiment: CDK4 Caliper Mobility Shift assay; type: biochemical
Method: (§1) A Caliper Mobility Shift assay was used to determine the inhibitory activities of a compound against CDK4/cyclin D1 and CDK6/cyclin D1 in their respective kinase buffers (CDK4: 20 mM HEPES, pH 7.5, and 0.01% Triton X-100; CDK6: 50 mM HEPES, pH 7.5, and 0.0015% BRIJ-35). The CDK4/cyclin D1 and CDK6/cyclin D1 were obtained from PROQINASE and CARNA, respectively. A FAM-labeled peptide was obtained from GL.
(§2) The compound at predetermined concentrations was pre-incubated with CDK4/cyclin D1 or CDK6/cyclin D1 in a 384-well microplate at room temperature for 10 min. The FAM-labeled peptide and ATP were subsequently added to initiate the kinase reactions. The final enzyme concentrations were 15 nM for CDK4 and 7.5 nM for CDK6. The final ATP concentrations were […] for CDK4 and […] for CDK6. The microplate was allowed to incubate at 28° C. The kinase reactions were stopped by adding a stop buffer (100 mM HEPES, pH 7.5, 0.012% BRIJ-35, 0.2% Coating Reagent 3 (Caliper Life Sciences), and […]). Conversion data were recorded and utilized to calculate the percent inhibition values for each compound and an IC50 value was then determined. The results are summarized in Table 1, where the symbol “***” represents a value no greater than 200 nM, the symbol “**” represents a value greater than 200 nM but no greater than 500 nM, and the symbol “*” represents a value greater than 500 nM.

CDK6/cyclin D1 = CDK6/cyclin D1 (Homo sapiens (Human), UniProt Q00534); experiment: CDK6 Caliper Mobility Shift assay; type: biochemical
Method: as §1, §2

[1] = test system: MCF-7 human breast cancer cells; experiment: CELLTITER-GLO luminescent cell viability assay; type: cell-based; details: MCF7, 192 h, MCF-7 cells, 8 days, read-out: EC50 (Effect on Cell Viability)
Method: A CELLTITER-GLO luminescent cell viability assay was carried out using MCF-7 human breast cancer cells under the normal growth condition. The MCF-7 human breast cancer cells were grown at 37° C. in a 5% CO2 humidified incubator in EMEM, supplemented 10% FBS, 0.01 mg/mL bovine insulin. The cells were seeded at a 3,000 cells/well in a 96-well tissue culture plate. The cells were allowed to adhere overnight in the incubator. A compound (5 μL) in a medium at a predetermined concentration. After the cells was incubated at 37° C. for 8 days, a CELLTITER-GLO detection solution (100 μL) was added. The cells were mixed on an orbital shaker for 5 min and then incubated for additional 10 min. The plate was read with an ENVISION reader. The results are summarized in Table 2, where the symbol “+++” represents a value no greater than 1 μM, the symbol “++” represents a value greater than 1 μM but no greater than 10 μM, and the symbol “+” represents a value greater than 10 μM.

CDK6/cyclin D1, sequence (Q00534 whole entry): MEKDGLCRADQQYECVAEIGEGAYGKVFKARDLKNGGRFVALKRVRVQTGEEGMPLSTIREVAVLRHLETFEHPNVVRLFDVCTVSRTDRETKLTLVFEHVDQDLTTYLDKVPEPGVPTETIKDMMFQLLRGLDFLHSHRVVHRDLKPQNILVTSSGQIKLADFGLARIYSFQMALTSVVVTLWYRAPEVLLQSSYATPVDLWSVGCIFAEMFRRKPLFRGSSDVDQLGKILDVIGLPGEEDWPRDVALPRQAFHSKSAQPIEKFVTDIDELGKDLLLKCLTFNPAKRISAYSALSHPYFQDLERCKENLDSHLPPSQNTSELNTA
CDK6/cyclin D1, sequence (P24385 whole entry partner): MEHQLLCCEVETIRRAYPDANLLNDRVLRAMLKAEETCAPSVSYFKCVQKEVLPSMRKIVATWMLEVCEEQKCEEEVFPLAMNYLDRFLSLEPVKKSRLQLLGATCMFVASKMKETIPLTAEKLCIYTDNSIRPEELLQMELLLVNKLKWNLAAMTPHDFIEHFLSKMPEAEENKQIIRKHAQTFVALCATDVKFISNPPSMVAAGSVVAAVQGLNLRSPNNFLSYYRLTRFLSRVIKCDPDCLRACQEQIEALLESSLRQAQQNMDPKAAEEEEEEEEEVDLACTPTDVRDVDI
CDK4/cyclin D1, sequence (P11802 whole entry): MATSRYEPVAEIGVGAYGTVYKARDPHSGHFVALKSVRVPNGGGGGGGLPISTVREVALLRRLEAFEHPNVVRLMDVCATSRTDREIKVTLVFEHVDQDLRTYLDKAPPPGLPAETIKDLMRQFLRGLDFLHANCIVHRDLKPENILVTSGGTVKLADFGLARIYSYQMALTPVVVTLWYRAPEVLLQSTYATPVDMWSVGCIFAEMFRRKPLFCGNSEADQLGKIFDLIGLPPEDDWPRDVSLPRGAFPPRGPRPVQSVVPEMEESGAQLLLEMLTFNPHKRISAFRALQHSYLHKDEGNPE
CDK4/cyclin D1, sequence (P24385 whole entry partner): as the sequence (P24385 whole entry partner) above

IC50 (CDK4/cyclin D1) [µM] | IC50 (CDK6/cyclin D1) [µM] | EC50 [1] [µM] | Compound
≤ 0.2 | ≤ 0.2 | 1 to 10 | CC(=O)OCCOC(=O)NS(=O)(=O)N1CCN(c2ccc(Nc3ncc4c(C)c(C(C)=O)c(=O)n(C5CCCC5)c4n3)nc2)CC1 [Compound A9, 2-((((4-(6-((6-Acetyl-8-cyclopentyl-5-methyl-7-oxo-7,8-dihydropyrido[2,3-d]-pyrimidin-2-yl)amino)pyridin-3-yl)piperazin-1-yl)sulfonyl)carbamoyl)oxy)ethyl acetate]
≤ 0.2 | ≤ 0.2 | > 10 | CC(=O)c1c(C)c2cnc(Nc3ccc(N4CCN(S(=O)(=O)NC(=O)OCCNC(=O)[C@@H](N)C(C)C)CC4)cn3)nc2n(C2CCCC2)c1=O [Compound A14, (S)-2-(2-Amino-3-methylbutanamido)ethyl ((4-(6-((6-acetyl-8-cyclopentyl-5-methyl-7-oxo-7,8-dihydropyrido[2,3-d]pyrimidin-2-yl)amino)pyridin-3-yl)piperazin-1-yl)sulfonyl)carbamate]
≤ 0.2 | ≤ 0.2 | > 10 | CC(=O)c1c(C)c2cnc(Nc3ccc(N4CCN(S(=O)(=O)NC(=O)OCCNC(=O)[C@@H](N)CO)CC4)cn3)nc2n(C2CCCC2)c1=O [Compound A18, (S)-2-(2-Amino-3-hydroxypropanamido)ethyl ((4-(6-((6-acetyl-8-cyclopentyl-5-methyl-7-oxo-7,8-dihydropyrido[2,3-d]pyrimidin-2-yl)amino)pyridin-3-yl)piperazin-1-yl)-sulfonyl)carbamate]
≤ 0.2 | ≤ 0.2 | > 10 | CSCC[C@H](N)C(=O)NCCOC(=O)NS(=O)(=O)N1CCN(c2ccc(Nc3ncc4c(C)c(C(C)=O)c(=O)n(C5CCCC5)c4n3)nc2)CC1 [Compound A19, (S)-2-(2-Amino-4-(methylthio)butanamido)ethyl ((4-(6-((6-acetyl-8-cyclopentyl-5-methyl-7-oxo-7,8-dihydropyrido[2,3-d]pyrimidin-2-yl)amino)pyridin-3-yl)piperazin-1-yl)-sulfonyl)carbamate]
> 0.5 | ≤ 0.2 | 1 to 10 | CC(=O)c1c(C)c2cnc(Nc3ccc(N4CCN(S(=O)(=O)NC(=O)OC5CCC5)CC4)cn3)nc2n(C2CCCC2)c1=O [Compound A23, Cyclobutyl ((4-(6-((6-acetyl-8-cyclopentyl-5-methyl-7-oxo-7,8-dihydropyrido[2,3-d]pyrimidin-2-yl)amino)pyridin-3-yl)piperazin-1-yl)sulfonyl)carbamate]
≤ 0.2 | ≤ 0.2 | 1 to 10 | CC(=O)c1c(C)c2cnc(Nc3ccc(N4CCN(S(=O)(=O)NC(=O)OC5CC5)CC4)cn3)nc2n(C2CCCC2)c1=O [Compound A24, Cyclopropyl ((4-(6-((6-acetyl-8-cyclopentyl-5-methyl-7-oxo-7,8-dihydropyrido[2,3-d]pyrimidin-2-yl)amino)pyridin-3-yl)piperazin-1-yl)sulfonyl)carbamate]
0.2 to 0.5 | ≤ 0.2 | 1 to 10 | CCOC(=O)NS(=O)(=O)N1CCN(c2ccc(Nc3ncc4c(C)c(C(C)=O)c(=O)n(C5CCCC5)c4n3)nc2)CC1 [Compound A25, Ethyl ((4-(6-((6-acetyl-8-cyclopentyl-5-methyl-7-oxo-7,8-dihydropyrido[2,3-d]-pyrimidin-2-yl)amino)pyridin-3-yl)piperazin-1-yl)sulfonyl)carbamate]
≤ 0.2 | ≤ 0.2 | 1 to 10 | COC(=O)NS(=O)(=O)N1CCN(c2ccc(Nc3ncc4c(C)c(C(C)=O)c(=O)n(C5CCCC5)c4n3)nc2)CC1 [Compound A26, Methyl ((4-(6-((6-acetyl-8-cyclopentyl-5-methyl-7-oxo-7,8-dihydropyrido[2,3-d]-pyrimidin-2-yl)amino)pyridin-3-yl)piperazin-1-yl)sulfonyl)carbamate]
